Data reported in patent publication EP3381907A1, “SYMMETRICAL 2-AMINOPHENYL-BENZAZOLYL-5-ACETATE COMPOUNDS AND THEIR USE AS ANTI-HEPARANASE” (Leadiant Biosciences SA, priority 2017, dated 2018).

Tests used:
heparanase = target: T1, heparanase (Homo sapiens, UniProt Q9Y251); experiment: AGA*IA assay: colorimetric fondaparinux cleavage assay for heparanase inhibition (WST-1); format: biochemical; settings: 2.5 nM heparanase, 100 µM fondaparinux, pH 5.0, 3 h at 37°C; class symbols
T1 sequence (Q9Y251 158-543 limits assumed): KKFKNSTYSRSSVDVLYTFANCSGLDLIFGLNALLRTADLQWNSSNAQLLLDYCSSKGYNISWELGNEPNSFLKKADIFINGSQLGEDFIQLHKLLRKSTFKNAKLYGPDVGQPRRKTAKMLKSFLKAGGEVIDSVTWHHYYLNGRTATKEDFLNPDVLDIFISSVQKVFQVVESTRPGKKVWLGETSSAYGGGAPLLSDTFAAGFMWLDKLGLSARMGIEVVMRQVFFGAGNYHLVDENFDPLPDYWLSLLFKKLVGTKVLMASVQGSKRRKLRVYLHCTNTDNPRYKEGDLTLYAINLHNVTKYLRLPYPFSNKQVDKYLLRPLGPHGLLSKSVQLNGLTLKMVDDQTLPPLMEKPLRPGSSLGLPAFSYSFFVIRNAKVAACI
T1 sequence (Q9Y251 36-109 limits assumed): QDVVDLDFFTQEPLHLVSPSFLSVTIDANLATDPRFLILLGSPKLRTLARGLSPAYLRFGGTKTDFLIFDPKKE
Protocol: All compounds were tested in a simple, accurate and robust microplate assay based on the cleavage of the synthetic heparin fragment, the pentasaccharide Fondaparinux (AGA*IA). This assay was originally developed by Hammond and coworkers [Hammond E, Li CP, Ferro V. Development of a colorimetric assay for heparanase activity suitable for kinetic analysis and inhibitor screening. Anal. Biochem. 396(1), 112-116 (2010)], where Fondaparinux corresponds to the methyl glycoside of the antithrombin III (ATIII)-activating pentasaccharide sequence of heparin. Fondaparinux is cleaved by heparanase to generate a reducing disaccharide, which can be quantitatively measured via a colorimetric or a fluorescence assay, the last by the fluorescent sensor polymer-H [Schiemann S, Lühn S, Alban S. Development of both colorimetric and fluorescence heparinase activity assays using fondaparinux as substrate. Anal. Biochem. 427(1), 82-89 (2012)].
The assay measures the appearance of the disaccharide product of heparanase-catalyzed fondaparinux cleavage colorimetrically using the tetrazolium salt WST-1. Assay was essentially performed as described with minor modifications. Briefly, NUNC ELISA 96-well plates were pre-treated with a solution of 4% BSA (bovin serum albumin) in phosphate-buffered saline containing 0.05% Tween 20 (PBST), for 2 h at 37°C, then washed three times with PBST, dried by tapping on paper towel and stored at -20°C. Before use, once again, the plates were washed with PBST.
Assay was carried out with 100 µl/well of assay solution containing 40 mM sodium acetate buffer (pH 5.0), 100 µM fondaparinux, 2.5 nM heparanase and serial dilutions of test compounds (tested in triplicate). Plates were sealed with adhesive tape and incubated, in the dark, for 3 h at 37°C, followed by development with 1.69 mM of the tetrazolium salt WST-1 solution in 0.1 M NaOH, for 1 h at 60°C. Then, the absorbance at 560 nm was measured through a microplate reader (Victor 3, Perkin Elmer).
Finally, the measurements were corrected by subtracting both the reagent background and the inner absorbance value of test compound.

[1] = system: U2OS (human osteosarcoma); experiment: SRB Cell Cytotoxicity Assay, U2OS; format: cell-based; settings: 72h treatment, read-out: Concentration (µM) of test compounds at which the cell growth is inhibited by 50 %. U2OS
Excerpt: (§1) SRB Cell Cytotoxicity Assay is an assay based upon the quantitative staining of cellular proteins by sulforhodamine B (SRB). This assay can be used for high-throughput drug screening (Vichai & Kirkitara, Nature Protocol. 2006, 1, 112). Sulforhodamine B is an anionic aminoxanthene dye that forms an electrostatic complex with the basic amino acid residues of proteins under moderately acid conditions, which provides a sensitive linear response.
(§2) To assess a putative antiproliferative activity of the selected compounds, HT1080 (human fibrosarcoma), U87MG (human glioblastoma astrocytoma) and U2OS (human osteosarcoma) cell lines were treated for 72h, in triplicate, with increasing concentrations of heparanase inhibitors. Inhibition of cell proliferation was then measured by the classical colorimetric SRB Cell Cytotoxicity assay. Absorbance was measured by spectrophotometer at a wavelength of 510 nm and cell proliferation was determined as percent with respect to control cells (cells treated with the vehicle alone). EC50 values were then determined by GraphPad Prism.

[2] = system: U87MG (human glioblastoma astrocytoma); experiment: SRB Cell Cytotoxicity Assay, U87MG; format: cell-based; settings: U-87 MG, 72h treatment, read-out: Concentration (µM) of test compounds at which the cell growth is inhibited by 50 %. U87MG
Excerpt: as §1, §2

[3] = system: HT1080 (human fibrosarcoma); experiment: SRB Cell Cytotoxicity Assay, HT1080; format: cell-based; settings: HT-1080, HT1080, 72h treatment, read-out: Concentration (µM) of test compounds at which the cell growth is inhibited by 50 %. HT1080
Excerpt: as §1, §2

SMILES | IC50 (heparanase) [µM] | EC50 [1] [µM] | EC50 [2] [µM] | EC50 [3] [µM]
O=C(Cc1ccc2[nH]c(-c3ccc(NC(=O)Nc4ccc(-c5nc6cc(CC(=O)NCB(O)O)ccc6[nH]5)cc4F)c(F)c3)nc2c1)NCB(O)O [Compound 9, (((2,2'-(((Carbonylbis(azanediyl))bis(3-fluoro-4,1-phenylene))bis(1H-benzo[d]imidazole-2,5-diyl))bis(acetyl))bis(azanediyl))bis(methylene))diboronic acid] | 1 to 20 |  |  | 
O=C(O)CNC(=O)Cc1ccc2[nH]c(-c3ccc(NC(=O)Nc4ccc(-c5nc6cc(CC(=O)NCC(=O)O)ccc6[nH]5)cc4F)c(F)c3)nc2c1 [Compound 7, 2,2'-((2,2'-(((carbonylbis(azanediyl))bis(3-fluoro-4,1-phenylene))bis(1H-benzo[d]imidazole-2,5-diyl))bis(acetyl))bis(azanediyl))diacetic acid] | 1 to 20 |  |  | 
CC(C)C[C@H](NC(=O)Cc1ccc2oc(-c3ccc(NC(=O)Nc4ccc(-c5nc6cc(CC(=O)N[C@@H](CC(C)C)B(O)O)ccc6o5)cc4F)c(F)c3)nc2c1)B(O)O [Compound 31, (1R,1'R)-(((2,2'-(((Carbonylbis(azanediyl))bis(3-fluoro-4,1-phenylene))bis(benzo[d]oxazole-2,5-diyl))bis(acetyl))bis(azanediyl))bis(3-methylbutane-1,1-diyl))diboronic acid] | 1 to 20 |  |  | 
O=C(O)Cc1ccc2oc(-c3ccc(NC(=O)Nc4ccc(-c5nc6cc(CC(=O)O)ccc6o5)cc4)cc3)nc2c1 [Compound 19, 2,2'-(((Carbonylbis(azanediyl))bis(4,1-phenylene))bis(benzo[d]oxazole-2,5-diyl))diacetic acid] | 1 to 20 | > 10 | > 10 | > 10
O=C(O)Cc1ccc2oc(-c3ccc(NC(=S)Nc4ccc(-c5nc6cc(CC(=O)O)ccc6o5)cc4)cc3)nc2c1 [Compound 33, 2,2'-(((thiocarbonylbis(azanediyl))bis(4,1-phenylene))bis(benzo[d]oxazole-2,5-diyl))diacetic acid] | 1 to 20 |  |  | 
O=C(O)CNC(=O)Cc1ccc2oc(-c3ccc(NC(=S)Nc4ccc(-c5nc6cc(CC(=O)NCC(=O)O)ccc6o5)cc4F)c(F)c3)nc2c1 [Compound 38, 2,2'-((2,2'-(((Thiocarbonylbis(azanediyl))bis(3-fluoro-4,1-phenylene))bis(benzo[d]oxazole-2,5-diyl))bis(acetyl))bis(azanediyl))diacetic acid] | 0.05 to 0.49 | > 10 | > 10 | > 10
O=C(Cc1ccc2[nH]c(-c3ccc(NC(=O)Nc4ccc(-c5nc6cc(CC(=O)N[C@@H](Cc7ccccc7)C(=O)O)ccc6[nH]5)cc4F)c(F)c3)nc2c1)N[C@@H](Cc1ccccc1)C(=O)O [Compound 8, (2S,2'S)-2,2'-((2,2'-(((Carbonylbis(azanediyl))bis(3-fluoro-4,1-phenylene))bis(1H-benzo[d]imidazole-2,5-diyl))bis(acetyl))bis(azanediyl))bis(3-phenylpropanoic acid)] | 0.5 to 0.99 |  |  | 
O=C(O)Cc1ccc2[nH]c(-c3ccc(NC(=O)Nc4ccc(-c5nc6cc(CC(=O)O)ccc6[nH]5)cc4F)c(F)c3)nc2c1 [Compound 4, 2,2'-(((Carbonylbis(azanediyl))bis(3-fluoro-4,1-phenylene))bis(1H-benzo[d]imidazole-2,5-diyl))diacetic acid] | 0.5 to 0.99 |  |  | 
O=C(O)Cc1ccc2oc(-c3ccc(NC(=S)Nc4ccc(-c5nc6cc(CC(=O)O)ccc6o5)cc4F)c(F)c3)nc2c1 [Compound 36, 2,2'-(((Thiocarbonylbis(azanediyl))bis(3-fluoro-4,1-phenylene))bis(benzo[d]oxazole-2,5-diyl))diacetic acid] | 1 to 20 |  |  | 
CC(C)CCNC(=O)Cc1ccc2oc(-c3ccc(NC(=O)Nc4ccc(-c5nc6cc(CC(=O)NCCC(C)C)ccc6o5)cc4F)c(F)c3)nc2c1 [Compound 28, 2,2'-(((Carbonylbis(azanediyl))bis(3-fluoro-4,1-phenylene))bis(benzo[d]oxazole-2,5-diyl))bis(N-isopentylacetamide)] | 1 to 20 |  |  | 
O=C(O)Cc1ccc2[nH]c(-c3ccc(NC(=S)Nc4ccc(-c5nc6cc(CC(=O)O)ccc6[nH]5)cc4F)c(F)c3)nc2c1 [Compound 12, 2,2'-(((Thiocarbonylbis(azanediyl))bis(3-fluoro-4,1-phenylene))bis(1H-benzo[d]imidazole-2,5-diyl))diacetic acid] | 0.5 to 0.99 |  |  | 
O=C(Cc1ccc2oc(-c3ccc(NC(=O)Nc4ccc(-c5nc6cc(CC(=O)N[C@@H](Cc7ccccc7)C(=O)O)ccc6o5)cc4F)c(F)c3)nc2c1)N[C@@H](Cc1ccccc1)C(=O)O [Compound 26, (2S,2'S)-2,2'-((2,2'-(((Carbonylbis(azanediyl))bis(3-fluoro-4,1-phenylene))bis(benzo[d]oxazole-2,5-diyl))bis(acetyl))bis(azanediyl))bis(3-phenylpropanoic acid)] | 0.5 to 0.99 | > 10 | > 10 | > 10
N=C(Nc1ccc(-c2nc3cc(CC(=O)O)ccc3o2)cc1)Nc1ccc(-c2nc3cc(CC(=O)O)ccc3o2)cc1 [Compound 40, 2,2'-((((Iminomethylene)bis(azanediyl))bis(4,1-phenylene))bis(benzo[d]oxazole-2,5-diyl))diacetic acid] | 1 to 20 |  |  | 
